Test system: 521955-158-R2-J5-PDC complex spheroids, viability
Test: Anticancer human tumor 521955-158-R2-J5-PDC patient-derived pancreatic carcinoma cell line growth inhibition [RAS]
Conditions: for IC50: curve of first compound; for viability, T/C: stronger effect = lower value; active = viability on the fitted dose curve at most 10% of control; inactive = the rest
Method in brief: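 Tumour cells grown as complex spheroids with HUVEC endothelial cells and mesenchymal stem cells, treated with RAS pathway inhibitor combinations. Each agent spans half-log steps from near clinical Cmax, or 10 microM where Cmax is unknown.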
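Also: compound exposure lasted seven days before the viability read.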
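For viability, T/C in this document: spheroids also contain HUVEC endothelial cells and mesenchymal stem cells as stroma.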

O=C(c1ccc(F)c(F)c1Nc1ccc(I)cc1F)N1CC(O)([C@@H]2CCCCN2)C1 + C=CC(=O)N1CCN(c2nc(OCC3CCCN3C)nc3c(F)c(-c4nc(N)cc(C)c4C(F)(F)F)c(Cl)cc23)C(C)C1
23 nM: IC50 (second compound 0.00316 µM)
72 nM: IC50 (second compound 0.316 µM)
26.9 nM: IC50 (second compound 1 µM)
37.2 nM: IC50 (second compound 0.0316 µM)
14.2 nM: IC50 (second compound 0.01 µM)
40.1 nM: IC50 (second compound 0.1 µM)
inactive: viability, T/C (second compound 0.00316 µM, first compound 0.00316 µM) 93% | viability, T/C (second compound 0.00316 µM, first compound 0.01 µM) 58% | viability, T/C (second compound 0.00316 µM, first compound 0.0316 µM) 48% | viability, T/C (second compound 0.00316 µM, first compound 0.1 µM) 36.6% | viability, T/C (second compound 0.00316 µM, first compound 0.316 µM) 29.8% | viability, T/C (second compound 0.00316 µM, first compound 1 µM) 23.3% | viability, T/C (second compound 0.01 µM, first compound 0.00316 µM) 84.2% | viability, T/C (second compound 0.01 µM, first compound 0.01 µM) 45.3% | viability, T/C (second compound 0.01 µM, first compound 0.0316 µM) 45.7% | viability, T/C (second compound 0.01 µM, first compound 0.1 µM) 38.2% | viability, T/C (second compound 0.01 µM, first compound 0.316 µM) 31.4% | viability, T/C (second compound 0.01 µM, first compound 1 µM) 19.6% | viability, T/C (second compound 0.0316 µM, first compound 0.00316 µM) 65.2% | viability, T/C (second compound 0.0316 µM, first compound 0.01 µM) 62.1% | viability, T/C (second compound 0.0316 µM, first compound 0.0316 µM) 44.4% | viability, T/C (second compound 0.0316 µM, first compound 0.1 µM) 47.2% | viability, T/C (second compound 0.0316 µM, first compound 0.316 µM) 33.2% | viability, T/C (second compound 0.0316 µM, first compound 1 µM) 21.5% | viability, T/C (second compound 0.1 µM, first compound 0.00316 µM) 65% | viability, T/C (second compound 0.1 µM, first compound 0.01 µM) 61.3% | viability, T/C (second compound 0.1 µM, first compound 0.0316 µM) 44.8% | viability, T/C (second compound 0.1 µM, first compound 0.1 µM) 50.8% | viability, T/C (second compound 0.1 µM, first compound 0.316 µM) 31.2% | viability, T/C (second compound 0.1 µM, first compound 1 µM) 24.1% | viability, T/C (second compound 0.316 µM, first compound 0.00316 µM) 97% | viability, T/C (second compound 0.316 µM, first compound 0.01 µM) 66.4% | viability, T/C (second compound 0.316 µM, first compound 0.0316 µM) 62.6% | viability, T/C (second compound 0.316 µM, first compound 0.1 µM) 48.1% | viability, T/C (second compound 0.316 µM, first compound 0.316 µM) 33.8% | viability, T/C (second compound 0.316 µM, first compound 1 µM) 20.3% | viability, T/C (second compound 1 µM, first compound 0.00316 µM) 80.2% | viability, T/C (second compound 1 µM, first compound 0.01 µM) 65.4% | viability, T/C (second compound 1 µM, first compound 0.0316 µM) 42.6% | viability, T/C (second compound 1 µM, first compound 0.1 µM) 39.3% | viability, T/C (second compound 1 µM, first compound 0.316 µM) 32.5% | viability, T/C (second compound 1 µM, first compound 1 µM) 22.6%

From PubChem BioAssay AID2060900 (Molecular Pharmacology Branch, DTP, NCI, 2025)
